Measurements from the METLIN SMRT retention time set (Domingo-Almenara et al. 2019).

Assay: gradient 5% acetonitrile 3 min, to 50% in 2 min, to 85% in 15 min, held 3 min, 100 µL/min
Conditions: column: Zorbax Extend-C18 2.1 x 50 mm; eluents: water / acetonitrile, 0.1% formic acid
Method in brief: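 Retention time was recorded from adduct peaks, which were picked computationally and each inspected manually. Pure standards ran in mixtures of ~100 molecules on HPLC coupled to a quadrupole time-of-flight mass spectrometer, in positive and negative ionization mode, through a Zorbax Extend-C18 column (2.1 × 50 mm, 1.8 μm) at 100 μL/min. Eluents were water and acetonitrile, each with 0.1% formic acid.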

| SMILES | RP-LC retention time |
| --- | --- |
| CCc1cnc2c(c1SCC(=O)N(CC)CC)c(=O)n(C)c(=O)n2C | 786 s |
| Cc1ccc(C)c(S(=O)(=O)N2CC(N(C(=O)NC(C)C)C3CCOCC3)C2)c1 | 689 s |
| CC1CCCN(CC2CCN(S(=O)(=O)Cc3ccccc3F)CC2)C1 (stereo unspecified) | 650 s |
| COc1cc2nc(N3CCC(N4CCCCC4)CC3)nc(NC3CCCCCC3)c2cc1OC | 662 s |
| COc1ccc(-c2nn(CCCC(=O)N3CCN(c4ccccc4)CC3)c(=O)c3noc(C)c23)cc1 | 922 s |
| COc1cccc(CCC(=O)N2C[C@@H]3C[C@H](NC(=O)c4cccs4)[C@H]2C3)c1 | 728 s |
| COc1ccc(-c2nc3cc(C)ccn3c2NC(=O)COc2ccc(Cl)cc2Cl)cc1 | 780 s |
| CCCSCCCNC(=O)Cn1cnc2nc3c(cc2c1=O)CCCC3 | 739 s |
| CCOC(=O)CNC(=O)N1CCC(n2c(-c3ccc(F)cc3)nc3cccnc32)C1 (stereo unspecified) | 641 s |
| O=C(Cn1nc2c(cc1=O)CCCCC2)Nc1cccc(N2CCCCS2(=O)=O)c1 | 762 s |
| CC(=O)c1cccc(NC(=O)N2C[C@H](c3nc(-c4ccccc4)no3)[C@@H](C)C2)c1 | 938 s |
| CC1CCN(C(=O)C2CCN(S(=O)(=O)c3ccc4c(c3)sc(=O)n4C(C)C)CC2)CC1 | 969 s |
| Cc1ccc(Nc2c(-c3ccc(Br)cc3)nc3cnccn23)c(Br)c1 | 1230 s |
| COc1ccc2c(c1)-c1nc(NC(=O)c3ccc(F)cc3)sc1CC2 | 1140 s |
| Cc1nc2c(NC(=O)NCc3ccccc3)cccn2n1 | 707 s |
| CN1C(=O)C(C)(C)COc2cc(NC(=O)CCSc3ccccc3)ccc21 | 882 s |
| COCc1nncn1C1CCN(C(=O)c2cc(F)ccc2Cl)CC1 | 635 s |
| Cc1cc(=O)n(CC(=O)Nc2ccc(Br)cc2)c(N2CCOCC2)n1 | 712 s |
| Cc1c(N2CCN(C(=O)C3CCCCC3)CC2)c(=O)n(C)c(=O)n1-c1ccccc1 | 881 s |
| CC(C)n1cc(S(=O)(=O)NCc2ccccc2Cl)c2cccnc21 | 914 s |
| CCCCNC(=O)c1cn(CC)nc1S(=O)(=O)N1CCN(c2ccccc2OCC)CC1 | 1080 s |
| O=C(c1ccc(CS(=O)c2ccc(Cl)cc2)o1)N1CCN(c2ccccn2)CC1 (stereo unspecified) | 582 s |

| SMILES | RP-LC retention time |
| --- | --- |
| CN(C)C(=O)c1ccc2c(c1)nnn2CCNC(=O)Nc1ccc(F)cc1 | 640 s |
| O=C(c1nccc2ccccc12)N1CCCCC1c1nc(C2CC2)no1 (stereo unspecified) | 813 s |
| O=C(CCn1cnc2c(-c3ccccc3)noc2c1=O)NCCCN1CCc2ccccc2C1 | 679 s |
| Cc1cc(N2CCN(C(=O)Nc3ccccc3C)CC2)nc(N2CCCC2)n1 | 651 s |
| CCn1cnc2ccc(-c3noc(-c4ccc(OC)cc4C)n3)cc21 | 741 s |
| COc1ccc(NC(=O)Cn2nc3cc(C)nc(-c4ccccc4)n3c2=O)c(OC)c1 | 830 s |
| COc1ccc(-c2cc(C(F)(F)F)n3ncc(C(=O)NCc4cn(C)nc4C)c3n2)cc1OC | 780 s |
| CCc1noc(C2CCCCN2CC(=O)NCCc2cccs2)n1 (stereo unspecified) | 794 s |
| Cc1cccc(C)c1NC(=O)NCc1ccco1 | 790 s |
| O=C(Nc1cnc(N2CCCCCC2)nc1)c1cc(F)cc(F)c1 | 1020 s |
| C=CCN1C(=O)COc2ccc(-c3csc(NC(=O)c4ccc(OC)c(OC)c4)n3)cc21 | 943 s |
| O=C1CN(CCc2cccs2)C2CS(=O)(=O)CC2N1c1ccc(Cl)cc1 (stereo unspecified) | 790 s |
| O=C(NCc1nc2ccccc2n1CC(=O)N1CCCCC1)c1ccco1 | 614 s |
| CC(C)(Oc1ccc(Cl)cc1)C(=O)N1CCN(C(=O)C2CC2c2cccs2)CC1 (stereo unspecified) | 1020 s |
| COc1ccc(NC(=O)Nc2nc(CCC(=O)O)cs2)cc1 | 647 s |
| Cc1ccc(CNC(=O)N2CCN(c3ncccc3-c3nnc(C(C)C)o3)CC2)cc1 | 815 s |
| Fc1ccc(Nc2nc(NCC3CCCO3)nc3[nH]ncc23)cc1 (stereo unspecified) | 578 s |
| COC(=O)c1ccc(C2CC(=O)NC3=C2C(=O)C(C(=O)OC)C(C)C3)cc1 (stereo unspecified) | 719 s |
| C[C@H](N)C(=O)N[C@@H](C)C(=O)N[C@@H](Cc1ccccc1)C(=O)CCl | 638 s |
| Cc1cnc(CC2CCN(C(=O)N(C)C)C2)n1Cc1ccccc1 (stereo unspecified) | 609 s |
| CC(=O)Nc1ccc(OCC(=O)N(C)Cc2ccccc2)nc1 | 544 s |
| Cc1ccc(NC(=O)N2CCC(n3cnc4c(C)cccc4c3=O)CC2)cc1 | 801 s |

| SMILES | RP-LC retention time |
| --- | --- |
| CCOC(=O)C1CCCN(C(=O)C2CCN(S(=O)(=O)c3ccc4c(ccn4CC)c3)CC2)C1 (stereo unspecified) | 849 s |
| Cc1noc2ncn(CC(=O)NCCc3ccccc3Cl)c(=O)c12 | 792 s |
| CCN1C(=O)C2(CCN(C(=O)c3c(C)noc3C)CC2)c2ccccc21 | 785 s |
| COc1cccc(C2Cn3nnc(-c4nc(-c5ccccc5C)no4)c3CO2)c1 (stereo unspecified) | 1180 s |
| O=C(Nc1cnn(-c2ncncc2N2CCCC2)c1)c1cccc(C(F)(F)F)c1 | 797 s |
| O=C(C1CCN(S(=O)(=O)c2ccc(-c3noc(C4CCCC4)n3)cc2)CC1)N1CCCC1 | 1030 s |
| CC(C)OC(=O)N1CCC(Oc2ncnc3c2cnn3-c2ccc(S(C)(=O)=O)cc2F)CC1 | 1060 s |
| Cc1ccc(NC(=O)CN2C(=O)COc3ccc(C(=O)N4CCCC4)cc32)nc1 | 625 s |
| CNC(=O)c1cc(C(=O)c2ccc3nc(Nc4ccc(Cl)cc4)[nH]c3c2)ccn1 | 669 s |
| CCc1csc(-c2ccc(N3CCN(C(=O)c4cccs4)CC3)nc2)n1 | 900 s |
| Cc1nc(NC(=O)c2ccc(-n3ccnc3)nn2)sc1C | 589 s |
| O=C(O)c1cccn2c(=O)c3ccccc3nc12 | 627 s |
| O=C(COc1ccc(Cl)cc1)Nc1nnc(Cc2cccs2)o1 | 796 s |
| CCOC(=O)c1c(C)[nH]c(C(=O)N2CCCC(C(=O)NCCCN3CCOCC3)C2)c1C (stereo unspecified) | 593 s |
| Cc1cc(-c2nnc(-c3ccccc3)o2)c(C)n1CC(=O)NCc1ccco1 | 826 s |
| COCCN(Cc1ccc(C)cc1)Cc1cc(=O)n2ccc(C)cc2n1 | 656 s |
| O=S(=O)(Nc1ccc(Cl)cc1)c1ccc2nncn2c1 | 712 s |
| Cc1cc(C)c(S(=O)(=O)N2CCC3(CC2)NCCN=C3NCc2ccccc2C)cc1C | 815 s |
| Cc1ccccc1CC(=O)N1C[C@H](c2nc(-c3ccccc3)no2)[C@@H](C)C1 | 1070 s |
| CCCN1C(=O)COc2ccc(-c3noc(CNC(=O)c4ccccc4)n3)cc21 | 870 s |
| COc1ccc(C2(c3nc(C4CC(=O)N(c5ccc(C)cc5)C4)no3)CC2)cc1 (stereo unspecified) | 1060 s |
| Cc1ccc2c(Nc3cc(F)cc(F)c3)c(C(=O)N3CCSCC3)cnc2n1 | 645 s |
